The subject of one assay is KCL-22 CML cells. The following applies: KCL-22 CML cells upon imatinib treatment; cited from earlier work.
Another assay has as its system Ku70. Put plainly: Immunoprecipitation of LSD1 or SIRT1 in KCL-22 cells to detect interaction with Ku70. It counts as cell-based. The protocol: IP of LSD1 or SIRT1 was carried out in KCL-22 cells to detect their interaction with Ku70, respectively. […] (B) Without and with treatment of 1 mM H2O2 for 1 h and 0.25 μM camptothecin (CPT) for 12 h. Flag was used for IP control.
To explore the mechanisms, Applicants used immunoprecipitation (IP) assay to examine SIRT1, LSD1 and Ku70 interaction.

In another assay the test system is Burkitt lymphoma. To be noted: single agent; cited from earlier work.
Setting [1] is: 2.5 μM imatinib (STI) for 24 and 48 h.

Here are results for four molecules from patent US9987280B2, “SIRT1 inhibitors and stem cell rejuvenation” (City of Hope, priority 2013, dated 2018).

Each structure is given as a SMILES string.

Turning to `Cc1ccc(NC(=O)c2ccc(CN3CCN(C)CC3)cc2)cc1Nc1nccc(-c2cccnc2)n1` [imatinib], in the assay with KCL-22 CML cells, the “acquisition of T315I BCR-ABL kinase domain mutation” value was “rapidly acquire T315I BCR-ABL kinase domain mutation”. In the assay on Ku70 (setting [1]), the “LSD1 interaction with Ku70” value is on record as “reduced” and the “SIRT1 interaction with Ku70” value was “rapidly enhanced”. The “total SIRT1 level” value in the assay on Ku70 (48 h drug treatment) is “partially reduced”. Regarding `O=c1[nH]c(S)nc(-c2ccccc2)c1Cc1c(O)ccc2ccccc12` [cambinol, 5-[(2-hydroxy-1-naphthyl)methyl]-2-mercapto-6-phenyl-4(3H)-pyrimidinone], the “sensitivity of Burkitt lymphoma” value in the assay with Burkitt lymphoma was “sensitive”. As for `CC[C@@]1(O)C(=O)OCc2c1cc1n(c2=O)Cc2cc3ccccc3nc2-1` [camptothecin], in the assay with Ku70 (0.25 μM camptothecin (CPT) for 12 h), the “LSD1/SIRT1 interaction with Ku70” value is “switch of LSD1/SIRT1 interaction with Ku70”. With `OO` [hydrogen peroxide], in the assay with Ku70 (1 mM H2O2 for 1 h), the “LSD1/SIRT1 interaction with Ku70” value is recorded as “switch of LSD1/SIRT1 interaction with Ku70”.
